By IC50 is commonly meant the point on the concentration scale where inhibition reaches its midpoint.

Where two headings read alike, the source gives them in different places.

Consider 25 compounds from US11725010B2, “Polyheterocyclic compounds as METTL3 inhibitors” (Storm Therapeutics Limited, priority 2019, dated 2023).

The subject of assay [1] is KASUMI-1 cells. The assay can be described thus: Kasumi cell assay (CellTiter-Glo cell growth). It counts as cell-based. As to conditions: Homo sapiens. As for the experimental part:
Upon treatment, Kasumil cells were incubated for 10 min at RT with the CellTiter-Glo reagent (G7571, Promega). Measurement of the luminescence signal was performed on a microplate reader (Ensight, PerkinElmer).
In general terms: In ATP-based viability assays light output follows the ATP content of the culture.

The test system of assay [2] is Caov-3 cells. The assay can be described thus: Caov3 CTG proliferation assay. It counts as cell-based. Conditions: Homo sapiens. The procedure: CTG Assay (Caov3 Cell Line)
Upon treatment, Coav-3 cells were incubated for 10 min at RT with the CellTiter-Glo reagent (G7571, Promega). Measurement of the luminescence signal was performed on a microplate reader (Ensight, PerkinElmer).
Caov3 CTG Assay—Proliferation Assay

In assay [3] the target is METTL3/14 (Homo sapiens (Human), UniProt Q86U44).
[4] abbreviates: Kasumi 1, treated for 120 hours, CellTiter-Glo luminescence, read-out: KASUMI1 cells IC50.
Where [5] appears, read: Caov-3, treated for 120 hours, CellTiter-Glo luminescence, read-out: Caov3 cells IC50.
[6] abbreviates: Kasumi 1, 120 h, read-out: KASUMI1 cells IC50 nM.

Sequence of METTL3/14 (Q86U44 whole entry): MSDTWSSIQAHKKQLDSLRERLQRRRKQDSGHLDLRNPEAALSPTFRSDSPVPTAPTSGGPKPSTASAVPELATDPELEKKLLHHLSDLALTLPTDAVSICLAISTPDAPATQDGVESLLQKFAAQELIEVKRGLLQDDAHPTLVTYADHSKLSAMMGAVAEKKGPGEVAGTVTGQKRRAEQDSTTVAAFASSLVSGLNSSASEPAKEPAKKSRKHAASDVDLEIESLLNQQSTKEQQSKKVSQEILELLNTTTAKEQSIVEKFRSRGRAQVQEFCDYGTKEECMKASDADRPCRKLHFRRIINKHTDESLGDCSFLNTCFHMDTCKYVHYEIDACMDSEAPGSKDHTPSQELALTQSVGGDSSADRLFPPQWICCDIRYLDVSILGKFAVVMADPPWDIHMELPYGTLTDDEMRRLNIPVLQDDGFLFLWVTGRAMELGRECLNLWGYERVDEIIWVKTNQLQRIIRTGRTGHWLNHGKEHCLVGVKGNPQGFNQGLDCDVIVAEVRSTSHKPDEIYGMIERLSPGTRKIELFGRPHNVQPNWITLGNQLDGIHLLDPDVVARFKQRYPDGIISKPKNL
Sequence of METTL3/14 (Q9HCE5 whole entry partner): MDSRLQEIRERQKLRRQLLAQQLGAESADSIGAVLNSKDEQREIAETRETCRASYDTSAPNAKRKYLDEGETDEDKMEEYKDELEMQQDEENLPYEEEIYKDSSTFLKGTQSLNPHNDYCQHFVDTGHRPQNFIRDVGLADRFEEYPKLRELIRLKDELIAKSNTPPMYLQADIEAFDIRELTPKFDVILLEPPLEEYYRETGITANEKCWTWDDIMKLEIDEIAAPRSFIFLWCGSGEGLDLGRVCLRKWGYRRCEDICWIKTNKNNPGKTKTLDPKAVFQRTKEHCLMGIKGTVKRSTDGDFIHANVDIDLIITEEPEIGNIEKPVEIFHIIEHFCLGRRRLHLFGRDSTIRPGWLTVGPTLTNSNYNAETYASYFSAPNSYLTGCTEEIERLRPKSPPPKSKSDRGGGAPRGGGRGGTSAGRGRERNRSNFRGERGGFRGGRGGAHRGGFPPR

Turning to `O=C(NCc1ccc2cc(CNCC34CC(F)(C3)C4)[nH]c2c1)c1cc(=O)n2ccccc2n1` [Compound 23, N-[(2-{[({3-fluorobicyclo[1.1.1]pentan-1-yl}methyl)amino]methyl}-1H-indol-6-yl)methyl]-4-oxo-4H-pyrido[1,2-a]pyrimidine-2-carboxamide], the IC50 in assay [1] (setting [4]) was determined as 263 nM; in assay [2] (setting [5]), 80.1 nM; in assay [3], 6.1 nM.

Take `O=C(NCc1ccc2cc(CN[C@H]3CCC[C@H]3O)[nH]c2c1)c1cc(=O)n2ccccc2n1` [Compound 38, N-{[2-({[(1S,2R)-2-hydroxycyclopentyl]amino}methyl)-1H-indol-6-yl]methyl}-4-oxo-4H-pyrido[1,2-a]pyrimidine-2-carboxamide]: the IC50 stood at 2310 nM in assay [1] (setting [6]); 458 nM in assay [2] (Caov-3, 120 h, read-out: Caov3 cells IC50 nM); 6.1 nM in assay [3].

Regarding `O=C(NCc1cc2[nH]c(CNCC3CCC3)cc2cc1F)c1cc(=O)n2ccccc2n1` [Compound 41, N-[[2-[(cyclobutylmethylamino)methyl]-5-fluoro-1H-indol-6-yl]methyl]-4-oxo-pyrido[1,2-a]pyrimidine-2-carboxamide], the IC50 in assay [1] (setting [4]) came to 309 nM; in assay [2] (setting [5]), 192 nM; in assay [3], 6.1 nM.

Turning to `O=C(NCc1ccc2cc(CN3CC4(CCC4)C3)[nH]c2c1)c1cc(=O)n2ccccc2n1` [Compound 67, N-[[2-(2-azaspiro[3.3]heptanean-2-ylmethyl)-1H-indol-6-yl]methyl]-4-oxo-pyrido[1,2-a]pyrimidine-2-carboxamide], the results for the IC50 in assay [1] (setting [4]), in assay [2] (setting [5]) and in assay [3] were 1720 nM, 482 nM and 6.1 nM, respectively.

Regarding `O=C(NCc1ccc2cc(CNCC34CCC(C3)C4)[nH]c2c1)c1cc(=O)n2ccccc2n1` [Compound 76, N-[(2-{[({bicyclo[2.1.1]hexan-1-yl}methyl)amino]methyl}-1H-indol-6-yl)methyl]-4-oxo-4H-pyrido[1,2-a]pyrimidine-2-carboxamide], the IC50 in assay [1] (setting [4]) turned out to be 698 nM; in assay [2] (setting [5]), 242 nM; in assay [3] it was 6.1 nM.

For the compound `CC12CC(CNCc3cc4ccc(CNC(=O)c5cc(=O)n6ccccc6n5)cc4[nH]3)(C1)C2` [Compound 77, N-[(2-{[({3-methylbicyclo[1.1.1]pentan-1-yl}methyl)amino]methyl}-1H-indol-6-yl)methyl]-4-oxo-4H-pyrido[1,2-a]pyrimidine-2-carboxamide], the IC50 in assay [1] (setting [4]) was determined as 1760 nM; in assay [2] (setting [5]) it was 701 nM; in assay [3], 6.1 nM.

Turning to `O=C(NCc1ccc2cc(CN3CC4(CCCC4)C3)[nH]c2c1)c1cc(=O)n2ccccc2n1` [Compound 81, N-{[2-({2-azaspiro[3.4]octan-2-yl}methyl)-1H-indol-6-yl]methyl}-4-oxo-4H-pyrido[1,2-a]pyrimidine-2-carboxamide], the IC50 in assay [1] (setting [4]) is 1030 nM; in assay [2] (setting [5]), 564 nM; in assay [3], 6.1 nM.

For the compound `CC1(C)CN(Cc2cc3ccc(CNC(=O)c4cc(=O)n5ccccc5n4)cc3[nH]2)C1` [Compound 83, N-({2-[(3,3-dimethylazetidin-1-yl)methyl]-1H-indol-6-yl}methyl)-4-oxo-4H-pyrido[1,2-a]pyrimidine-2-carboxamide], in assay [1] (setting [4]), the IC50 is 3680 nM.

In the case of `O=C(NCc1ccc2cc(CN3CC4(CCCCC4)C3)[nH]c2c1)c1cc(=O)n2ccccc2n1` [Compound 90, N-{[2-({2-azaspiro[3.5]nonan-2-yl}methyl)-1H-indol-6-yl]methyl}-4-oxo-4H-pyrido[1,2-a]pyrimidine-2-carboxamide], the half-maximal inhibitory concentration (IC50) in assay [1] (setting [4]) stood at 1250 nM; in assay [2] (setting [5]) it was 602 nM; in assay [3] it was 6.1 nM.

On to `CC1(C)CCN(Cc2cc3ccc(CNC(=O)c4cc(=O)n5ccccc5n4)cc3[nH]2)C1` [Compound 92, N-({2-[(3,3-dimethylpyrrolidin-1-yl)methyl]-1H-indol-6-yl}methyl)-4-oxo-4H-pyrido[1,2-a]pyrimidine-2-carboxamide], for which the values for the 50% inhibitory concentration (IC50) in assay [1] (setting [4]), in assay [2] (setting [5]) and in assay [3] were 1610 nM, 598 nM and 6.1 nM, respectively.

Turning to `O=C(NCc1ccc2cc(CN3CC4(CC(F)C4)C3)[nH]c2c1)c1cc(=O)n2ccccc2n1` [Compound 93, N-{[2-({6-fluoro-2-azaspiro[3.3]heptanean-2-yl}methyl)-1H-indol-6-yl]methyl}-4-oxo-4H-pyrido[1,2-a]pyrimidine-2-carboxamide], the half-maximal inhibitory concentration (IC50) in assay [1] (setting [4]) turned out to be 1330 nM; in assay [2] (setting [5]), 453 nM; in assay [3] it was 6.1 nM.

In the case of `CC(C)(C)C1CN(Cc2cc3ccc(CNC(=O)c4cc(=O)n5ccccc5n4)cc3[nH]2)C1` [Compound 97, N-({2-[(3-tert-butylazetidin-1-yl)methyl]-1H-indol-6-yl}methyl)-4-oxo-4H-pyrido[1,2-a]pyrimidine-2-carboxamide], the IC50 is 3090 nM in assay [1] (setting [4]) and 1020 nM in assay [2] (setting [5]).

As to `CC1CC(CNCc2cc3ccc(CNC(=O)c4cc(=O)n5ccccc5n4)cc3[nH]2)C1` (stereo not drawn) [Compound 99, N-{[2-({[(3-methylcyclobutyl)methyl]amino}methyl)-1H-indol-6-yl]methyl}-4-oxo-4H-pyrido[1,2-a]pyrimidine-2-carboxamide], the half-maximal inhibitory concentration (IC50) was determined as 3260 nM in assay [1] (setting [4]) and 1090 nM in assay [2] (setting [5]).

As for `CC(C)(C)C(C)(C)NCc1cc2ccc(CNC(=O)c3cc(=O)n4ccccc4n3)cc2[nH]1` [Compound 100, 4-oxo-N-[(2-{[(2,3,3-trimethylbutan-2-yl)amino]methyl}-1H-indol-6-yl)methyl]-4H-pyrido[1,2-a]pyrimidine-2-carboxamide], the IC50 is 2540 nM in assay [1] (setting [4]) and 685 nM in assay [2] (setting [5]).

Consider `N#CC12CC(CNCc3cc4ccc(CNC(=O)c5cc(=O)n6ccccc6n5)cc4[nH]3)(C1)C2` [Compound 111, N-[(2-{[({3-cyanobicyclo[1.1.1]pentan-1-yl}methyl)amino]methyl}-1H-indol-6-yl)methyl]-4-oxo-4H-pyrido[1,2-a]pyrimidine-2-carboxamide], for which the IC50 in assay [1] (setting [4]) came out at 2290 nM.

In the case of `O=C(NCc1ccc2cc(CNC3(C4CCC4)CC3)[nH]c2c1)c1cc(=O)n2ccccc2n1` [Compound 116, N-[(2-{[(1-cyclobutylcyclopropyl)amino]methyl}-1H-indol-6-yl)methyl]-4-oxo-4H-pyrido[1,2-a]pyrimidine-2-carboxamide], the IC50 in assay [1] (setting [4]) stood at 5070 nM; in assay [3] it was 6.1 nM.

Regarding `CC1(CNCc2cc3ccc(CNC(=O)c4cc(=O)n5ccccc5n4)cc3[nH]2)CC1` [Example 6, N-[[2-[[(1-methylcyclopropyl)methylamino]methyl]-1H-indol-6-yl]methyl]-4-oxo-pyrido[1,2-a]pyrimidine-2-carboxamide], the half-maximal inhibitory concentration (IC50) in assay [2] (setting [5]) was 756 nM; in assay [3], 6.1 nM.

As for `c1cc(-c2cn(Cc3ccc4cc(CNCC5CCC5)[nH]c4c3)nn2)c2cn[nH]c2c1` [Example 58, N-(cyclobutylmethyl)-1-[6-[[4-(1H-indazol-4-yl)triazol-1-yl]methyl]-1H-indol-2-yl]methanamine], the figures for the IC50 in assay [2] (setting [5]) and in assay [3] were 702 nM and 6.1 nM, respectively.

For `c1cc(-c2cn(Cc3cnc4cc(CNCC5CCC5)[nH]c4c3)nn2)c2cn[nH]c2c1` [Example 59, N-(cyclobutylmethyl)-1-[6-[[4-(1H-indazol-4-yl)triazol-1-yl]methyl]-1H-pyrrolo[3,2-b]pyridin-2-yl]methanamine], the values for the IC50 in assay [2] (setting [5]) and in assay [3] were 524 nM and 6.1 nM, respectively.

For the compound `O=c1cc(-c2cn(Cc3ccc4cc(CNCC5CCC5)[nH]c4c3)nn2)nc2ccccn12` [Example 62, 2-[1-[[2-[(cyclobutylmethylamino)methyl]-1H-indol-6-yl]methyl]triazol-4-yl]pyrido[1,2-a]pyrimidin-4-one], the IC50 in assay [2] (setting [5]) turned out to be 696 nM; in assay [3], 6.1 nM.

For `COc1cc(-c2cn(Cc3ccc4cc(CNCC5CCC5)[nH]c4c3)nn2)c2cncn2c1` [Example 63, N-(cyclobutylmethyl)-1-[6-[[4-(6-methoxyimidazo[1,5-a]pyridin-8-yl)triazol-1-yl]methyl]-1H-indol-2-yl]methanamine], the results for the IC50 in assay [1] (setting [4]) and in assay [2] (setting [5]) were 869 nM and 257 nM, respectively.

With `CN(Cc1cc2ccc(CNC(=O)c3cc(=O)n4ccccc4n3)cc2[nH]1)CC1CCC1` [Example 70, N-[[2-[[cyclobutylmethyl(methyl)amino]methyl]-1H-indol-6-yl]methyl]-4-oxo-pyrido[1,2-a]pyrimidine-2-carboxamide], the IC50 in assay [1] (setting [6]) is 4900 nM.

Regarding `O=C(NCc1ccc2cc(CNCC3CCC3)[nH]c2c1)c1cnc2[nH]ccc2c1` [Example 137, N-[(2-{[(cyclobutylmethyl)amino]methyl}-1H-indol-6-yl)methyl]-1H-pyrrolo[2,3-b]pyridine-5-carboxamide], the IC50 in assay [2] (setting [5]) was 1080 nM; in assay [3] it was 6.1 nM.

On to `COc1cnc(C#N)c(-c2cn(Cc3ccc4cc(CNCC5CCC5)[nH]c4c3)nn2)c1` [Example 151, 3-{1-[(2-{[(Cyclobutylmethyl)amino]methyl}-1H-indol-6-yl)methyl]-1H-1,2,3-triazol-4-yl}-5-methoxy-2-pyridinecarbonitrile], for which the IC50 in assay [1] (setting [4]) worked out at 7220 nM; in assay [2] (setting [5]), 9060 nM.

Consider `N#Cc1ncc(F)cc1-c1cn(Cc2ccc3cc(CNCC4CCC4)[nH]c3c2)nn1` [Example 152, 3-(1-((2-(((cyclobutylmethyl)amino)methyl)-1H-indol-6-yl)methyl)-1H-1,2,3-triazol-4-yl)-5-fluoropicolinonitrile], for which the concentration for half-maximal inhibition (IC50) in assay [1] (setting [4]) was 9960 nM; in assay [2] (setting [5]), 5430 nM.
